The results in this text go back to ChEMBL document CHEMBL5226338, “Molecular hybrids: A five-year survey on structures of multiple targeted hybrids of protein kinase inhibitors for cancer therapy” (Eur J Med Chem, 2021).

In one assay the target is DNA topoisomerase 1 (Homo sapiens, UniProt P11387). The assay can be described thus: Inhibition of human DNA topoisomerase 1 incubated for 2 hrs by ELISA. (In general: In an ELISA, binding on a coated surface is turned into a signal by an enzyme label.)
In assay [1] the target is T1, Epidermal growth factor receptor (Homo sapiens, UniProt P00533). The assay can be described thus: Inhibition of EGFR (unknown origin) using poly (Glu,Tyr) 4:1 as substrate incubated for 1 hr in presence of ATP by spectrophotometric analysis relative to sorafenib. The following applies: concentration not given here.
Assay [2] concerns the target T2, Vascular endothelial growth factor receptor 2 (Homo sapiens, UniProt P35968). In words: Inhibition of VEGFR2 (unknown origin) using biotin-gastrin precursor (Tyr87) peptide as substrate incubated for 1 hr in presence of ATP by spectrophotometric analysis relative to sorafenib. Conditions: concentration not given here.
For assay [3], the system named is K562. In words: Cytotoxicity against human K562 cells assessed as inhibition of cell growth. Format: functional, cell-based.
The subject of assay [4] is K562. The assay can be described thus: Cytotoxicity against imatinib-resistant human K562 cells assessed as inhibition of cell growth. Format: functional, cell-based.
Assay [5] deals with T1, Epidermal growth factor receptor. The assay can be described thus: Inhibition of GST-fused EGFR (unknown origin) in presence of ATP by microplate reader analysis.
For assay [6], the target named is Tubulin. The assay can be described thus: Inhibition of MAP-rich tubulin (unknown origin) polymerization. Format: protein-complex assay, Homo sapiens.
In another assay the test system is MCF7. In words: Cytotoxicity against human MCF7 cells assessed as inhibition of cell growth incubated for 24 hrs by MTT assay. The following applies: MCF7, 24 h. The format is functional, cell-based.
The next assay deals with MDA-MB-231. In words: Cytotoxicity against human MDA-MB-231 cells assessed as inhibition of cell growth incubated for 24 hrs by MTT assay. Format: functional, cell-based. The following applies: MDA-MB-231, 24 h. (In general: Tetrazolium assays rely on reduction of a dye to a coloured formazan, in cell work by metabolically active cells.)
In assay [7] the target is T1, Epidermal growth factor receptor. The assay can be described thus: Inhibition of EGFR (unknown origin).
The next assay has as its system SK-MEL-1. In words: Antiproliferative activity against human SK-MEL-1 cells assessed as inhibition of cell growth incubated for 72 hrs by MTT assay. Format: functional, cell-based. The following applies: SK-MEL-1, 72 h.
A further assay has as its system U-937. In words: Antiproliferative activity against human U-937 cells assessed as inhibition of cell growth incubated for 72 hrs by MTT assay. Format: functional, cell-based. The following applies: U-937, 72 h.
For the next assay, the target named is Cyclin-dependent kinase. In words: Inhibition of CDK (unknown origin). The format is protein assay, Homo sapiens.
Assay [8] concerns the target Tubulin (Bos taurus, UniProt Q6B856+Q862L2+Q862F3). In words: Inhibition of bovine brain tubulin polymerization incubated for 20 mins by spectrophotometric method. The format is tissue-based.
In assay [9] the target is T3, Histone deacetylase 1 (Homo sapiens, UniProt Q13547). The assay can be described thus: Inhibition of recombinant HDAC1 (unknown origin) using Fluor-de-Lys as substrate incubated for 10 mins by fluorescence based analysis.
The target in assay [10] is Serine/threonine-protein kinase B-raf (Homo sapiens, UniProt P15056, V600E). The assay can be described thus: Inhibition of full length human BRAF V600E mutant using His-tagged full length human MEK1 (K97R) as substrate incubated for 20 mins by [gamma-33P]ATP based filter-binding method.
The target in assay [11] is Tubulin. The assay can be described thus: Inhibition of tubulin (unknown origin) polymerization. Format: protein-complex assay, Homo sapiens.
A further assay has as its system HepG2. The assay can be described thus: Cytotoxicity against human HepG2 cells assessed as inhibition of cell growth incubated for 24 hrs by MTT assay. The format is functional, cell-based. The following applies: HepG2, 24 h.
The target of a further assay is DNA topoisomerase 2-beta (Homo sapiens, UniProt Q02880). In words: Inhibition of human DNA topoisomerase 2-beta.
The target of assay [12] is T2, Vascular endothelial growth factor receptor 2. In words: Inhibition of VEGFR2 (unknown origin) by ELISA.
The target of assay [13] is T1, Epidermal growth factor receptor. The assay can be described thus: Inhibition of EGFR (unknown origin) by ELISA.
The target in assay [14] is T2, Vascular endothelial growth factor receptor 2. In words: Inhibition of human VEGFR2 using TMB as substrate by ELISA.
For assay [15], the target named is Tubulin beta (Homo sapiens) (UniProt P68371+Q9H4B7+Q13509+P04350+Q3ZCM7+P07437+Q13885+Q9BVA1+Q9BUF5+A6NNZ2). The assay can be described thus: Inhibition of beta-tubulin polymerization in human HepG2 cells using TMB substrate by spectrophotometry analysis relative to control. The format is cell-based. Conditions: concentration not given here.
A short description of assay [16]: Cytotoxicity against human U87 cells. The format is functional, cell-based, U-87MG ATCC. Conditions: U-87 MG.
Assay [17] has as its target T3, Histone deacetylase 1. The assay can be described thus: Inhibition of HDAC1 (unknown origin).
Assay [18] concerns the target T4, Protein deacetylase HDAC6 (Homo sapiens, UniProt Q9UBN7).
T4 sequence (Q9UBN7 whole entry): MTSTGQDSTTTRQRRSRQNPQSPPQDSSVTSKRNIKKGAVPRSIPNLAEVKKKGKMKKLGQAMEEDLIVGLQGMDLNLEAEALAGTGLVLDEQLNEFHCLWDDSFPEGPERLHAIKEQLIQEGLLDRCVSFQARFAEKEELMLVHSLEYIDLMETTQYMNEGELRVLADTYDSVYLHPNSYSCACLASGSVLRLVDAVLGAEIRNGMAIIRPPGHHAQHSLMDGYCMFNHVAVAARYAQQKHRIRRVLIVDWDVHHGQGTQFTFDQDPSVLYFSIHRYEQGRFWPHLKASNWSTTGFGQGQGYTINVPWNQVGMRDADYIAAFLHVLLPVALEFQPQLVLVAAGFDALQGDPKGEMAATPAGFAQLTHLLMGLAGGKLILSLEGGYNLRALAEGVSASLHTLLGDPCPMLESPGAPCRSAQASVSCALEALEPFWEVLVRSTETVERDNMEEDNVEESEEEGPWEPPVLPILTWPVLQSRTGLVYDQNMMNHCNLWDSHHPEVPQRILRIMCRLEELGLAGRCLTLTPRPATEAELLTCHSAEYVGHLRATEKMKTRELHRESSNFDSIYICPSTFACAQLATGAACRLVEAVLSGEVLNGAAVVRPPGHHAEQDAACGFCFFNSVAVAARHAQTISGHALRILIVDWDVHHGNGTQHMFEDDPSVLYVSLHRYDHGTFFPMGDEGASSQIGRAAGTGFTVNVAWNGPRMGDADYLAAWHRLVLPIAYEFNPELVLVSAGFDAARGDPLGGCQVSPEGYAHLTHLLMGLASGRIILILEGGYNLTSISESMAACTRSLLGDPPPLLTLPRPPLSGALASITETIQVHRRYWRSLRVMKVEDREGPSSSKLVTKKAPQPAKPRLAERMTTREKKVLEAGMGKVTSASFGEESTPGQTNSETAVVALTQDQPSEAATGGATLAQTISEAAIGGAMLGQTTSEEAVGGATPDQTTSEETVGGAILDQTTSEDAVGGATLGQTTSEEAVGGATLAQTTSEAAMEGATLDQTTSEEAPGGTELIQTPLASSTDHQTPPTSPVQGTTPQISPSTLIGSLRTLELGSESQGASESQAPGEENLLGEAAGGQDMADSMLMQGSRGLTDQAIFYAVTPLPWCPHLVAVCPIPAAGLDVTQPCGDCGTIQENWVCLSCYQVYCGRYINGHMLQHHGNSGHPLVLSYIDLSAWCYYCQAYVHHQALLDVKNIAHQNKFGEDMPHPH
The assay can be described thus: Inhibition of HDAC6 (unknown origin).

The target of assay [19] is Tyrosine-protein kinase JAK2 (Homo sapiens, UniProt O60674). In words: Inhibition of JAK2 (unknown origin).

T2 sequence (P35968 whole entry): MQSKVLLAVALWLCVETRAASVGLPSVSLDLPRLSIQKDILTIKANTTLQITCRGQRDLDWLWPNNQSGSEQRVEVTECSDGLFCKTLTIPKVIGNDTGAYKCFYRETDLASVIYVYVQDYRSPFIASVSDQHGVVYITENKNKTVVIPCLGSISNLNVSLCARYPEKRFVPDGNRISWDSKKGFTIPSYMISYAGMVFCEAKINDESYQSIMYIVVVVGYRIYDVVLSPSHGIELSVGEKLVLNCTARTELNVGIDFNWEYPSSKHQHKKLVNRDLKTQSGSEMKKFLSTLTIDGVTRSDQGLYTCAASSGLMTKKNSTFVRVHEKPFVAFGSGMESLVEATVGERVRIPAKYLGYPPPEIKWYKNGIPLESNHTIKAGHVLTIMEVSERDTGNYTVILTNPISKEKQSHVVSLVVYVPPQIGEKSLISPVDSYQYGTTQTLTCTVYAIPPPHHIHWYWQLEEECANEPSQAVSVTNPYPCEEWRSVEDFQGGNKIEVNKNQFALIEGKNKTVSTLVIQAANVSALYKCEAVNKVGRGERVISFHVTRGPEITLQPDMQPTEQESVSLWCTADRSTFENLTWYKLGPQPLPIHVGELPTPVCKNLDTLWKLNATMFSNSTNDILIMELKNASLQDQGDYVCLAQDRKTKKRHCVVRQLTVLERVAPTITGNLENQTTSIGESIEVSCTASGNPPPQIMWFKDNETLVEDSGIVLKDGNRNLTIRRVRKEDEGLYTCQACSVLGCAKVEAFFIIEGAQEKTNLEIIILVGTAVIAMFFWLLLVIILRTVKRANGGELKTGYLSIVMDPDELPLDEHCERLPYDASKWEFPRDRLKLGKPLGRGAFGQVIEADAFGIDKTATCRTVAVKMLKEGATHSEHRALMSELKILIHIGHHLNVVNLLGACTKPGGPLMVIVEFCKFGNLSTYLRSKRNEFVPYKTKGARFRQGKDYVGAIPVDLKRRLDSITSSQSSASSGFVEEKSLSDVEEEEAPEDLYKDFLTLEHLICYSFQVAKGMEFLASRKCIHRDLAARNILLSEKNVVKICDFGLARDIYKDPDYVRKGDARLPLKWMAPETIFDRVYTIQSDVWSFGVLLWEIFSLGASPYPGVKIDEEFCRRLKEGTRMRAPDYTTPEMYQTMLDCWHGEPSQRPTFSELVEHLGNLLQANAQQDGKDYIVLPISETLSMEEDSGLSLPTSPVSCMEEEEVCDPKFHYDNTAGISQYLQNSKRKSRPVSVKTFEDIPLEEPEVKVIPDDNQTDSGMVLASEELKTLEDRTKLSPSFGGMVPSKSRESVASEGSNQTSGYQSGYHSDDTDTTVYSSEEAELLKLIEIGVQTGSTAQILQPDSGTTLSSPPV
T1 sequence (P00533 whole entry): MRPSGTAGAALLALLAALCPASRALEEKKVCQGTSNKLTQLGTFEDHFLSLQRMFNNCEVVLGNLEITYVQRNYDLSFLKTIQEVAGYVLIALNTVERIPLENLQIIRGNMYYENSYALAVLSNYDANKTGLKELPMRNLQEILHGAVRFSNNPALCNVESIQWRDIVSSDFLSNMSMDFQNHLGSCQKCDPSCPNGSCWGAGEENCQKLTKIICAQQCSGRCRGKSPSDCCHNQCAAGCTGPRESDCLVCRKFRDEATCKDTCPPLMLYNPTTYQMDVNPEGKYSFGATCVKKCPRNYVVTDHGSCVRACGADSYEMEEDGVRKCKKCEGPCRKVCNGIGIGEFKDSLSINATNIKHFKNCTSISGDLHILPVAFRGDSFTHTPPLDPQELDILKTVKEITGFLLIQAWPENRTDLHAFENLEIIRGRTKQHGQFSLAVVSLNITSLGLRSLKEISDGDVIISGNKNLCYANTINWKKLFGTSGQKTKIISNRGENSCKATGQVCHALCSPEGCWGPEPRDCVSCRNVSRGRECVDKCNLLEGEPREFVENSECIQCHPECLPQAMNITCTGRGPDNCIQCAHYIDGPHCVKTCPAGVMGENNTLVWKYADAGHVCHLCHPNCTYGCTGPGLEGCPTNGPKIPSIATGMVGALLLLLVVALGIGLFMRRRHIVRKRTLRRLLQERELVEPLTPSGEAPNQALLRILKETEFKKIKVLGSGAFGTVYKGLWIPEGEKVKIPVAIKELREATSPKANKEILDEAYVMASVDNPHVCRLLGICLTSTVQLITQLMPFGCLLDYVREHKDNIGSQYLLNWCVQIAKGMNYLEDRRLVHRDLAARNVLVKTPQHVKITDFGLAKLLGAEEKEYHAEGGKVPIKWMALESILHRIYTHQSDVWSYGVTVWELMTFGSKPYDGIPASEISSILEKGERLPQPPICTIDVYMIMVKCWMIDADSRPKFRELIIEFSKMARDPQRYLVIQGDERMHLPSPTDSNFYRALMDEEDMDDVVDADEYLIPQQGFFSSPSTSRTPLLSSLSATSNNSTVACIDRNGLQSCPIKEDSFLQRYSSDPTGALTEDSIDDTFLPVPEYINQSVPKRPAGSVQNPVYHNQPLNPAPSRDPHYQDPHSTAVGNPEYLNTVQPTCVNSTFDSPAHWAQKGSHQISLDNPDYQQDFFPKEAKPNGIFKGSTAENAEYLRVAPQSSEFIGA
T3 sequence (Q13547 whole entry): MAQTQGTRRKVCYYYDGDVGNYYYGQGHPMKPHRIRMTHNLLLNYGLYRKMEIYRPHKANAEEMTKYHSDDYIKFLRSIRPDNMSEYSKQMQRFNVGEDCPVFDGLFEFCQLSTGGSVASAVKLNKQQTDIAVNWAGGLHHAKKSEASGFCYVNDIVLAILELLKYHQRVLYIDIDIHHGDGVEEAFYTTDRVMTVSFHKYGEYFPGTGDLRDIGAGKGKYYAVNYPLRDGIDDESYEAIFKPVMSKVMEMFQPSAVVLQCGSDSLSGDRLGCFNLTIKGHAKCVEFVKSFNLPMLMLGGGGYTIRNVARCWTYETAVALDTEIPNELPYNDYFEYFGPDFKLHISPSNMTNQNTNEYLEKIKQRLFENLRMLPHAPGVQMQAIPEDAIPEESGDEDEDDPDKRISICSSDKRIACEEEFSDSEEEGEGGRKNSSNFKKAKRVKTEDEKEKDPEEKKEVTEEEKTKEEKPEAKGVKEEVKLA
DNA topoisomerase 2-beta, sequence (Q02880 whole entry): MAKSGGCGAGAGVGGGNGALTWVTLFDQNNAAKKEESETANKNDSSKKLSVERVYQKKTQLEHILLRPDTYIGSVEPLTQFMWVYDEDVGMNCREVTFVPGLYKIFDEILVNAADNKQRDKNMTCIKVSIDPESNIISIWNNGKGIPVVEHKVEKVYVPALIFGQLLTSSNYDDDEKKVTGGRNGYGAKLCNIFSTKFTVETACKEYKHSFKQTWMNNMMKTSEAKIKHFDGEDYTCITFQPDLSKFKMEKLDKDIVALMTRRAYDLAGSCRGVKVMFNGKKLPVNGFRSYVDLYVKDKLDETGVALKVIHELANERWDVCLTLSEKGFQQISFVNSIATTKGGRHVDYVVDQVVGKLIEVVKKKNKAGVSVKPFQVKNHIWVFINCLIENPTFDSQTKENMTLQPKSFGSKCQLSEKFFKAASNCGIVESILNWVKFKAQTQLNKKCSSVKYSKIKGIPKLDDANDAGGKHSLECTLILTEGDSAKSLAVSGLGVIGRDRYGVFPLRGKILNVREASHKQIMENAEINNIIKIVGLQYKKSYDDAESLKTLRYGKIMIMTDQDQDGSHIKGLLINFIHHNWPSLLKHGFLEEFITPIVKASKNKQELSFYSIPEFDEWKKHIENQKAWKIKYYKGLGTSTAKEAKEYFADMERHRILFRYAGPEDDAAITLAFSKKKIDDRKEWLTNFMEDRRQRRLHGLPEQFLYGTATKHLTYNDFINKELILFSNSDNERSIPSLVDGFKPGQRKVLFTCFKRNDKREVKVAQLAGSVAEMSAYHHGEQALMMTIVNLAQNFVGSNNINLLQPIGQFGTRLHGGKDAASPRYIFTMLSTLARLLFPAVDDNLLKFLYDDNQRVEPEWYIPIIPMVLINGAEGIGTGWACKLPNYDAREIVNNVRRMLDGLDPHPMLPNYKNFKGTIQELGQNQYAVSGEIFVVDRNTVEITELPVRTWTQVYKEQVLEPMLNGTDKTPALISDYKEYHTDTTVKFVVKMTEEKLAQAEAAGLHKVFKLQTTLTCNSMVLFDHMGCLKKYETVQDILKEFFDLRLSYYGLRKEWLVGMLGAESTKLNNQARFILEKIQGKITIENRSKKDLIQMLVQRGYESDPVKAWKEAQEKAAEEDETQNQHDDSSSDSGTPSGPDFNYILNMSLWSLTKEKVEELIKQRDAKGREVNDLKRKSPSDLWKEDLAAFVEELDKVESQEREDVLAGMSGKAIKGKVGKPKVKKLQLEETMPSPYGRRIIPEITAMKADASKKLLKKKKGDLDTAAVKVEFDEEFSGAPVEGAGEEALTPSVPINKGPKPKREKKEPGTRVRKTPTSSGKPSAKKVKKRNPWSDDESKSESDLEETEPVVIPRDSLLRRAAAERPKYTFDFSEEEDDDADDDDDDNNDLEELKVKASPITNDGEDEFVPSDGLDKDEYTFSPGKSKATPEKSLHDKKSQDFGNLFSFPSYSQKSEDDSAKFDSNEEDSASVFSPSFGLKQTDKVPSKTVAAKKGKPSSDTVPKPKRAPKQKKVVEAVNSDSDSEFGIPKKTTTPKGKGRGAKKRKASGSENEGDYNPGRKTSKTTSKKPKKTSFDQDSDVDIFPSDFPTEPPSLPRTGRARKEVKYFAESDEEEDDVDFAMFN

What is called IC50 is the concentration that gives 50% inhibition. One may read the inhibition as the drop in the measured response relative to a control, in per cent. Turning to `N#CC1=C(N)Oc2ccccc2C1c1cc2ccccc2n2nnnc12` (centres undefined), at DNA topoisomerase 1, 278 nM corresponded to half-maximal inhibition (IC50). Also, the values for the inhibition in assay [1] and in assay [2] were 30% and 60%, respectively.
On to `COc1ccc(S(=O)(=O)N2CCc3cccc(NC=O)c32)cc1`, for which the results for the IC50 in the assay with K562 [3] and with K562 [4] were 390 nM and 410 nM, respectively.
For the molecule `Fc1ccc(C2=Nc3ccc(F)cc3CN2/N=C\c2ccccc2)cc1`, the IC50 in [5] is 75.2 nM; against Tubulin [6], 9250 nM; in the assay on MCF7 it was 350 nM; in the assay on MDA-MB-231 it was 280 nM.
In assay [7], `CSc1nn(-c2ccc(Br)cc2)c2nc(C)nc(Nc3ccc(OCCCC[N+](=O)[O-])cc3)c12` had an IC50 of 3000 nM.
As for `COc1ccc(CCNc2nc(N)c(C(=O)c3cc(OC)c(OC)c(OC)c3)s2)cc1`, the IC50 was 8000 nM with SK-MEL-1, 5700 nM with U-937, > 10000 nM against Cyclin-dependent kinase and > 20000 nM on Tubulin [8].
With `COc1ccc(NC(=O)Nc2ccc(Oc3ccc(C(=O)c4ncc[nH]4)cc3)cc2)cc1`, the IC50 on Histone deacetylase 1 [9] was 635 nM; in assay [10], 1700 nM.
As to `CCCOCCSc1nc(-c2ccccc2Cl)nn1CCOCCC`, the IC50 in [5] amounted to 867 nM; on Tubulin [11], 107 nM; in the assay on HepG2, 1300 nM.
Turning to `Cc1ccc2c(=O)n(Cc3ccccc3)c(SCc3cn(-c4ccc(C(=O)O)cc4)nn3)nc2c1`, the IC50 against DNA topoisomerase 2-beta was 25.8 nM; in assay [12], 126 nM; in assay [13], 38.8 nM.
Molecule `CC(=O)O[C@H]1CC[C@]2(C)[C@H]3CC=C4[C@@H]5CC(C)(C)CC[C@]5(C(=O)OCCCC[N+](=O)[O-])CC[C@@]4(C)[C@]3(C)CC[C@H]2C1(C)CO` (some centres undefined) had an IC50 in assay [7] of 10 nM.
In assay [14], `COc1ccc(NC(=O)c2c(Nc3ccccc3)sc(C#N)c2NC(=O)CNc2ccc(Cl)cc2)cc1` yielded an IC50 of 590 nM. Also, the inhibition in [15] came to 73%.
In assay [16], `C=C[C@]1(C)CC[C@@H](C(=C)COC(=O)CNC(=O)CCC(=O)OCCCCOc2no[n+]([O-])c2S(=O)(=O)c2ccccc2)C[C@H]1C(=C)C` displayed a half-maximal inhibitory concentration (IC50) of 2 nM.
With `CC(=O)Nc1ccc(-c2ccnc(NCc3ccc(OCCCCCC(=O)NO)cc3)n2)cc1`, the IC50 was 306 nM at Histone deacetylase 1 [17], 20 nM in assay [18] and 2.6 nM in assay [19].
